Reference: US20120016009A1, “Optimized Methods For Delivery Of DSRNA Targeting The PCSK9 Gene” (priority 2008, published 2012)
In the oligonucleotide strings, read from the 5' end, every base follows the letter of its sugar. An asterisk marks phosphorothioate; unmarked linkages are phosphodiester. Other units and linkages are bracketed, terminal groups are in braces. A string of capitals states the bases alone. [Ab] = 3'-terminal abasic nucleotide; e = 2'-O-(2-methoxyethyl) (MOE); d = 2'-deoxy (DNA); m = 2'-O-methyl; r = 2'-OH (RNA); {P} = phosphate; f = 2'-fluoro

The substances below were run on PCSK9 mRNA (assay: PCSK9 siRNA screening in HepG2 cells (lipofectamine 2000 transfection, PCSK9 mRNA by Quantigene, normalized to GAP-DH)). Details: 3 nM siRNA.
Assay type: cell-based, human
In short: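 HepG2 cells, grown in MEM with 10% fetal calf serum, antibiotics, non-essential amino acids and sodium pyruvate at 37° C. and 5% CO2, were plated at 2.0×10^4 cells/well in 96-well plates and transfected directly with siRNA using lipofectamine 2000. After 24 hours, cells were lysed and PCSK9 mRNA was measured by Quantigene and normalized to GAP-DH mRNA.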

For “AD-9626: PCSK9 siRNA (sense rUrGrArArGrArUrArUrUrUrArUrUrCrUrGrGrGdT*dT; antisense rCrCrCrArGrArArUrArArArUrArUrCrUrUrCrAdT*dT)”, the “Mean percent remaining mRNA transcript at siRNA concentration/in cell type 3 nM/HepG2” value was 68%.

Same assay, conditions: 30 nM siRNA

Compared with “AD-9598: PCSK9 siRNA (sense rCrCrUrGrGrUrGrGrArGrGrUrGrUrArUrCrUrCdT*dT; antisense rGrArGrArUrArCrArCrCrUrCrCrArCrCrArGrGdT*dT)”, “AD-9693: PCSK9 siRNA (sense mCrGmCmUrGmUrGmUrGrGrAmCmCmUmCmUmUmUrGdT*dT; antisense mCrArArArGrArGrGrUrCmCrAmCrAmCrArGrCrGdT*dT)” is lower in “Mean percent remaining mRNA transcript at siRNA concentration/in cell type 30 nM/HepG2” value: 83% for the first, 50% for the second.

Going from “AD-9515: PCSK9 siRNA (sense rGrGrUrArCrCrGrGrGrCrGrGrArUrGrArArUrAdT*dT; antisense rUrArUrUrCrArUrCrCrGrCrCrCrGrGrUrArCrCdT*dT)” to “AD-9705: PCSK9 siRNA (sense rAmUmCrGrArGrGrArGrGrAmCmUmCmCmUmCmUrGdT*dT; antisense mCrArGrArGrGrArGrUrCrCrUrCrCrUrCrGrArUdT*dT)”, the “Mean percent remaining mRNA transcript at siRNA concentration/in cell type 30 nM/HepG2” value rises from 49% to 81%.

Compared with “AD-9684: PCSK9 siRNA (sense mUrAmUmCmUmUmUmUrGrGrGmUmCmUrGmUmCmCmUdT*dT; antisense rArGrGrAmCrArGrArCrCmCrArArArArGrAmUrAdT*dT)”, “AD-9556: PCSK9 siRNA (sense rUrGrGrUrGrGrArGrGrUrGrUrArUrCrUrCrCrUdT*dT; antisense rArGrGrArGrArUrArCrArCrCrUrCrCrArCrCrAdT*dT)” is lower in “Mean percent remaining mRNA transcript at siRNA concentration/in cell type 30 nM/HepG2” value: 63% for the first, 46% for the second.

Compared with “AD-9626: PCSK9 siRNA (sense rUrGrArArGrArUrArUrUrUrArUrUrCrUrGrGrGdT*dT; antisense rCrCrCrArGrArArUrArArArUrArUrCrUrUrCrAdT*dT)”, “AD-9702: PCSK9 siRNA (sense rGmCrArGrArGrAmCmUrGrAmUmCmCrAmCmUmUmCdT*dT; antisense rGrArArGrUrGrGrArUmCrArGrUrCrUrCrUrGrCdT*dT)” is lower in “Mean percent remaining mRNA transcript at siRNA concentration/in cell type 30 nM/HepG2” value: 97% for the first, 79% for the second.

In the case of “AD-9720: PCSK9 siRNA (sense rGmCmUrGmCmCrGrGmCrArAmCmUmUmCmCrGrGrGdT*dT; antisense rCrCrCrGrGrArArGrUrUrGrCrCrGrGmCrArGrCdT*dT)”, the “Mean percent remaining mRNA transcript at siRNA concentration/in cell type 30 nM/HepG2” value is reported as 92%.

Same assay, conditions: 100 nM siRNA

In the case of “AD-9598: PCSK9 siRNA (sense rCrCrUrGrGrUrGrGrArGrGrUrGrUrArUrCrUrCdT*dT; antisense rGrArGrArUrArCrArCrCrUrCrCrArCrCrArGrGdT*dT)”, the “Mean percent remaining mRNA transcript at siRNA concentration/in cell type 100 nM/HepG2” value is reported as 69%.

These substances were tested on PCSK9 mRNA (assay: In vitro screening of modified dsRNAs targeted to PCSK9 (Table 2b; cell type not given)). Details: 30 nM siRNA.
Assay type: cell-based
Method: For transfection with siRNA, HuH7, HepG2, or HeLa cells were seeded at a density of 2.0×10^4 cells/well in 96-well plates and transfected directly. Transfection of siRNA (30 nM for single dose screen) was carried out with lipofectamine 2000 (Invitrogen GmbH, Karlsruhe, Germany, cat. No. 11668-019) as described by the manufacturer.
24 hours after transfection HuH7 and HepG2 cells were lysed and PCSK9 mRNA levels were quantified with the Quantigene Explore Kit (Genosprectra, Dumbarton Circle Fremont, USA, cat. No. QG-000-02) according to the protocol. PCSK9 mRNA levels were normalized to GAP-DH mRNA. For each siRNA eight individual datapoints were collected. siRNA duplexes unrelated to PCSK9 gene were used as control. The activity of a given PCSK9 specific siRNA duplex was expressed as percent PCSK9 mRNA concentration in treated cells relative to PCSK9 mRNA concentration in cells treated with the control siRNA duplex.
Tables 1b and 2b (and FIG. 6A) summarize the results and provide examples of in vitro screens in different cell lines at different doses. Silencing of PCSK9 transcript was expressed as percentage of remaining transcript at a given dose.

First: AD-12045: modified dsRNA, SEQ ID NO:1325/1326 (chain 1 rGrCrCrUrGrGrArGrUrUrUrArUrUrCrGrGrArAdT*dT; chain 2 rUrUrCmCrGrArArUrArArArCrUrCrCrArGrGrCdT*dT)
Second: AD-12043: modified dsRNA, SEQ ID NO:1321/1322 (chain 1 rGrCrCrUrGrGrArGrUrUrUrArUrUrCrGrGrArAdT*dT; chain 2 rUmUrCrCrGrArArUrArArArCrUrCrCrArGrGrCdT*dT)
The “Remaining mRNA in % of controls at siRNA conc. of 30 nM” value (shortened to “Remaining mRNA in % of controls”) of the first is lower: 8% for the first, 13% for the second.

First: AD-12359: modified dsRNA, SEQ ID NO:1415/1416 (chain 1 GCCUGGAGUUUAUUCGGAA; chain 2 {P}-mUfUmCfCmGfAmAfUmAfAmAfCmUfCmCfAmGfGmC*fC*mU; chain 1: sugars from the 5' end rererererererererer, all phosphodiester, methylation of C and T or U not given here)
Second: AD-12355: modified dsRNA, SEQ ID NO:1407/1408 (chain 1 fGmCfCmUfGmGfAmGfUmUfUmAfUmUfCmGfGmAfA; chain 2 rUrUrCrCrGrArAmUrArArArCrUrCmCrArGrGrCdT*dT)
The “Remaining mRNA in % of controls” value of the first is higher: 30% for the first, 9% for the second.

Going from “AD-12063: modified dsRNA, SEQ ID NO:1361/1362 (chain 1 rGmCrCmUrGmGrAmGrUmUrUmArUmUrCmGrGmArA; chain 2 rUrUrCrCrGmAmArUrAmAmArCrUrCrCrAmGmGmC*mC*mU)” to “AD-12391: modified dsRNA, SEQ ID NO:1477/1478 (chain 1 rGfCfCfUrGrGrArGrGfUfUfUrAfUfUfCrGrGrArA; chain 2 rUrUrCrCrGmAmArUrAmAmArCrUrCrCrAmGmGmC)”, the “Remaining mRNA in % of controls” value rises from 19% to 21%.

Compared with “AD-12401: modified dsRNA, SEQ ID NO:1497/1498 (chain 1 rGmCmCmUrGrGrArGmUmUmUrAmUmUmCrGrGrArAdT*dT; chain 2 {P}-fUfUfCfCrGrArAfUrArArAfCfUfCfCrArGrGfC*fC*fU)”, “AD-12065: modified dsRNA, SEQ ID NO:1365/1366 (chain 1 rGmCrCmUrGmGrAmGrUmUrUmArUmUrCmGrGmArAdTdT[Ab]; chain 2 rUrUrCrCrGrArAmUrArArArCrUrCmCrArGrGrCdTdT[Ab])” is higher in “Remaining mRNA in % of controls” value: 13% for the first, 16% for the second.

Going from “AD-12038: modified dsRNA, SEQ ID NO:1311/1312 (chain 1 rGmCmCmUrGrGrArGmUmUmUrAmUmUmCrGrGrArAdT*dT; chain 2 mUrUrCrCrGrArArUrArArArCrUrCrCrArGrGrCdT*dT)” to “AD-12383: modified dsRNA, SEQ ID NO:1461/1462 (chain 1 rGrCrCrUrGrGrArGrUrUrUrArUrUrCrGrGrArAdT*dT; chain 2 {P}-fUfUfCfCrGrArAfUrArArAfCfUfCfCrArGrGfCdT*dT)”, the “Remaining mRNA in % of controls” value falls from 13% to 7%.

Compared with “AD-12066: modified dsRNA, SEQ ID NO:1367/1368 (chain 1 rGmCrCmUrGmGrAmGrUmUrUmArUmUrCmGrGmArA; chain 2 rUrUrCrCrGrArAmUrArArArCrUrCmCrArGrGrC*mC*mU)”, “AD-12380: modified dsRNA, SEQ ID NO:1455/1456 (chain 1 rGfCfCfUrGrGrArGfUfUfUrAfUfUfCrGrGrArAdT*dT; chain 2 {P}-mUfUmCfCmGfAmAfUmAfAmAfCmUfCmCfAmGfGmC*fC*mU)” is lower in “Remaining mRNA in % of controls” value: 20% for the first, 8% for the second.

“AD-12356: modified dsRNA, SEQ ID NO:1409/1410 (chain 1 fGmCfCmUfGmGfAmGfUmUfUmAfUmUfCmGfGmAfA; chain 2 mUrUmCrCrGrArAmUrArArArCrUmCmCrArGrGrCdT*dT)” and “AD-12364: modified dsRNA, SEQ ID NO:1425/1426 (chain 1 GCCUGGAGUUUAUUCGGAATT; chain 2 rUrUrCrCrGmAmArUrAmAmArCrUrCrCrAmGmGmCdT*dT; chain 1: sugars from the 5' end rerererererererererdd, linkages o19 s1 (s phosphorothioate, o phosphodiester), methylation of C and T or U not given here)” are the same in “Remaining mRNA in % of controls” value: 25% for the first, 25% for the second.

First: AD-12389: modified dsRNA, SEQ ID NO:1473/1474 (chain 1 rGfCfCfUrGrGrArGrGfUfUfUrAfUfUfCrGrGrArA; chain 2 {P}-mUfUmCfCmGfAmAfUmAfAmAfCmUfCmCfAmGfGmC*fC*mU)
Second: AD-12392: modified dsRNA, SEQ ID NO:1479/1480 (chain 1 rGfCfCfUrGrGrArGrGfUfUfUrAfUfUfCrGrGrArA; chain 2 rUrUrCrCrGrArArUrArArArCrUrCrCrArGrGrCdT*dT)
The “Remaining mRNA in % of controls” value of the first is lower: 16% for the first, 28% for the second.

Compared with “AD-12053: modified dsRNA, SEQ ID NO:1341/1342 (chain 1 rGmCmCmUrGrGrArGmUmUmUrAmUmUmCrGrGrArArArArGdTdT[Ab]; chain 2 rCrUrUrUrUrCrCrGrArArUrArArArCrUrCrCrArGrGrCdTdT[Ab])”, “AD-12350: modified dsRNA, SEQ ID NO:1399/1400 (chain 1 fGmCfCmUfGmGfAmGfUmUfUmAfUmUfCmGfGmAfAdTdT[Ab]; chain 2 {P}-mUfUmCfCmGfAmAfUmAfAmAfCmUfCmCfAmGfGmCdTdT[Ab])” is lower in “Remaining mRNA in % of controls” value: 46% for the first, 17% for the second.

Going from “AD-12354: modified dsRNA, SEQ ID NO:1405/1406 (chain 1 fGmCfCmUfGmGfAmGfUmUfUmAfUmUfCmGfGmAfA; chain 2 rUrUrCrCrGrArArUrArArArCrUrCrCrArGrGrC*mC*mU)” to “AD-12057: modified dsRNA, SEQ ID NO:1349/1350 (chain 1 rGmCrCmUrGmGrAmGrUmUrUmArUmUrCmGrGmArA; chain 2 rUrUrCrCrGrArArUrArArArCrUrCrCrArGrGrCdT*dT)”, the “Remaining mRNA in % of controls” value falls from 11% to 8%.

With “AD-12341: modified dsRNA, SEQ ID NO:1381/1382 (chain 1 fGmCfCmUfGmGfAmGfUmUfUmAfUmUfCmGfGmAfAdT*dT; chain 2 {P}-mUfUmCfCmGfAmAfUmAfAmAfCmUfCmCfAmGfGmCdT*dT)” the “Remaining mRNA in % of controls” value was 12%.

Same assay, conditions: data not shown; test system not given

With “AD-3511: a derivative of AD-10792; sense SEQ ID NO: 1521, antisense SEQ ID NO: 1522 (sense rGmCmCmUrGrGrArGmUmUmUrAmUmUmCrGrGrArAdT*dT; antisense {P}-mUrUrCrCrGrArAmUrArArArCrUrCmCrArGrGrCdT*dT; further chemistry not fully specified)” the IC50 was 0.07 to 0.2 nM.
